Experiments:
Assay in all cases: biochemical
Parameters in all cases: KINOMEscan competition binding panel, per cent of control
Settings in all cases: read-out: %Ctrl @ 2800nM
MLK2 = biological target: T1, MLK2 (Homo sapiens, UniProt Q02779)
T1 construct: gene MAP3K10
How it was run: (§1)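 Competition binding panel (KINOMEscan) across 450 human kinases and disease-relevant mutants, run to the contractor's standard protocol. Values are % control: (test signal − positive control signal)/(negative control signal − positive control signal) × 100, with lower values indicating stronger binding.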

CSNK1A1L = CSNK1A1L (Homo sapiens, UniProt Q8N752)
How it was run: as §1

CAMK2A = CAMK2A (Homo sapiens, UniProt Q9UQM7)
How it was run: as §1

MKNK2 = MKNK2 (Homo sapiens, UniProt Q9HBH9)
How it was run: as §1

NLK = NLK (Homo sapiens, UniProt Q9UBE8)
How it was run: as §1

CAMKK1 = CAMKK1 (Homo sapiens, UniProt Q8N5S9)
How it was run: as §1

MRCKA = biological target: T2, MRCKA (Homo sapiens, UniProt Q5VT25)
T2 construct: gene CDC42BPA
How it was run: as §1

ERK2 = biological target: T3, ERK2 (Homo sapiens, UniProt P28482)
T3 construct: gene MAPK1
How it was run: as §1

CHEK2 = CHEK2 (Homo sapiens, UniProt O96017)
How it was run: as §1

MLCK = biological target: T4, MLCK (Homo sapiens, UniProt Q32MK0)
T4 construct: gene MYLK3
How it was run: as §1

MAP3K3 = MAP3K3 (Homo sapiens, UniProt Q99759)
How it was run: as §1

LKB1 = biological target: T5, LKB1 (Homo sapiens, UniProt Q15831)
T5 construct: gene STK11
How it was run: as §1

STK16 = STK16 (Homo sapiens, UniProt O75716)
How it was run: as §1

[1] = biological target: T6, RPS6KA4(Kin.Dom.2-C-terminal) (Homo sapiens, UniProt O75676)
T6 construct: Kin.Dom.2-C-terminal
How it was run: as §1

ERK1 = biological target: T7, ERK1 (Homo sapiens, UniProt P27361)
T7 construct: gene MAPK3
How it was run: as §1

PIP5K1A = PIP5K1A (Homo sapiens, UniProt Q99755)
How it was run: as §1

EGFR(T790M) = EGFR(T790M) (Homo sapiens, UniProt P00533, T790M)
How it was run: as §1

EPHA8 = EPHA8 (Homo sapiens, UniProt P29322)
How it was run: as §1

[2] = biological target: T8, RSK3(Kin.Dom.2-C-terminal) (Homo sapiens, UniProt Q15349)
T8 construct: gene RPS6KA2; Kin.Dom.2-C-terminal
How it was run: as §1

BIKE = biological target: T9, BIKE (Homo sapiens, UniProt Q9NSY1)
T9 construct: gene BMP2K
How it was run: as §1

ERK8 = biological target: T10, ERK8 (Homo sapiens, UniProt Q8TD08)
T10 construct: gene MAPK15
How it was run: as §1

DYRK1A = DYRK1A (Homo sapiens, UniProt Q13627)
How it was run: as §1

GRK2 = GRK2 (Homo sapiens, UniProt P25098)
How it was run: as §1

MEK6 = biological target: T11, MEK6 (Homo sapiens, UniProt P52564)
T11 construct: gene MAP2K6
How it was run: as §1

PIK3CA(E542K) = PIK3CA(E542K) (Homo sapiens, UniProt P42336, E542K)
How it was run: as §1

CLK2 = CLK2 (Homo sapiens, UniProt P49760)
How it was run: as §1

Sequence of STK16 (O75716 whole entry): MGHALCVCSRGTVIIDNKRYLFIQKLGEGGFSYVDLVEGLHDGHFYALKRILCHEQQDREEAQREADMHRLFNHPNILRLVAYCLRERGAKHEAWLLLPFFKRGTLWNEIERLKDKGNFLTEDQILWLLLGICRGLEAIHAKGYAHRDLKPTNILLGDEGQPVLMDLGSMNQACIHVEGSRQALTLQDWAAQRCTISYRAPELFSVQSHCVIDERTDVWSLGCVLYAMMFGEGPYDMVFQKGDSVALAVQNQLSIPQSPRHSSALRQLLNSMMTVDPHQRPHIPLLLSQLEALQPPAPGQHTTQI
T5 sequence (Q15831 whole entry): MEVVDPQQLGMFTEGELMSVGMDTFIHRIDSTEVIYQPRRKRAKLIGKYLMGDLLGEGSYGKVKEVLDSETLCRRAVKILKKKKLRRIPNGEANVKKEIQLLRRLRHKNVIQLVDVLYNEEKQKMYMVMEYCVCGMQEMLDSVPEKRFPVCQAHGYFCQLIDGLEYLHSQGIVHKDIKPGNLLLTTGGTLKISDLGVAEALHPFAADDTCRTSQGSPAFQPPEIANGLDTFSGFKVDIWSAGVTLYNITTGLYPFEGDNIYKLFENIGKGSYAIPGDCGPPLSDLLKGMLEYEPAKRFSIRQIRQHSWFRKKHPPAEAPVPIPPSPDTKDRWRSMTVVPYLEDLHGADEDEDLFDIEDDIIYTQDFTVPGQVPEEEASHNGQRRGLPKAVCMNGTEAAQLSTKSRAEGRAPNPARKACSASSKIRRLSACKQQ
T4 sequence (Q32MK0 whole entry): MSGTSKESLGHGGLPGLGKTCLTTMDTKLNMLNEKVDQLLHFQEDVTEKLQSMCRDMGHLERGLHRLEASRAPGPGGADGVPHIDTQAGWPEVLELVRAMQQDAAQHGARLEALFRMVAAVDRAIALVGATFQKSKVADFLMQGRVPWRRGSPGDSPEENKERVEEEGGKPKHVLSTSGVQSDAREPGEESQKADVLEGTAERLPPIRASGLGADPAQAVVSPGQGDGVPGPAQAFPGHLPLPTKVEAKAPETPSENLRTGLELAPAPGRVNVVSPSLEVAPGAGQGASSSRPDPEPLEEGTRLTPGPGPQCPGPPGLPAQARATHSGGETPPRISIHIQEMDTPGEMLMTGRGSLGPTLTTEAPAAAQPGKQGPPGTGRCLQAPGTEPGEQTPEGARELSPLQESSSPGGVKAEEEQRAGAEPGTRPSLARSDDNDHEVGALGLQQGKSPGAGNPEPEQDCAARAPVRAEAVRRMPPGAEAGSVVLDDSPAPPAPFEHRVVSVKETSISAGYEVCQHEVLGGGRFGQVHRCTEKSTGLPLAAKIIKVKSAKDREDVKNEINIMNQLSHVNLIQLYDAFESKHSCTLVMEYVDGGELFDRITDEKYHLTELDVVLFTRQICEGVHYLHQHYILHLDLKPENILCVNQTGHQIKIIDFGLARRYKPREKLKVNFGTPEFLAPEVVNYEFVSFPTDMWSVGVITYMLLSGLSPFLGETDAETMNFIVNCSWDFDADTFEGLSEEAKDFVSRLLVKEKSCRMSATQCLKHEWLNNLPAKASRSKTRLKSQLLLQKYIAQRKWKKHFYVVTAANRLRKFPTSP
T11 sequence (P52564 whole entry): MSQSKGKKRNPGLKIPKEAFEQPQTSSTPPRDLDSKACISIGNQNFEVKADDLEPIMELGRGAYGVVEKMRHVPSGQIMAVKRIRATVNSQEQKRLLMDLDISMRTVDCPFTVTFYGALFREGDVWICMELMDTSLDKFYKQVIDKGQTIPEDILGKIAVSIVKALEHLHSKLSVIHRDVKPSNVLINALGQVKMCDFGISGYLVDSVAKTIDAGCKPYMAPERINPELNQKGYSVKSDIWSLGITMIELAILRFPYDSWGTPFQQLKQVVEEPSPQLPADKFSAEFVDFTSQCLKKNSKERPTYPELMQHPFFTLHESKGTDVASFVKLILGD
T6 sequence (O75676 whole entry): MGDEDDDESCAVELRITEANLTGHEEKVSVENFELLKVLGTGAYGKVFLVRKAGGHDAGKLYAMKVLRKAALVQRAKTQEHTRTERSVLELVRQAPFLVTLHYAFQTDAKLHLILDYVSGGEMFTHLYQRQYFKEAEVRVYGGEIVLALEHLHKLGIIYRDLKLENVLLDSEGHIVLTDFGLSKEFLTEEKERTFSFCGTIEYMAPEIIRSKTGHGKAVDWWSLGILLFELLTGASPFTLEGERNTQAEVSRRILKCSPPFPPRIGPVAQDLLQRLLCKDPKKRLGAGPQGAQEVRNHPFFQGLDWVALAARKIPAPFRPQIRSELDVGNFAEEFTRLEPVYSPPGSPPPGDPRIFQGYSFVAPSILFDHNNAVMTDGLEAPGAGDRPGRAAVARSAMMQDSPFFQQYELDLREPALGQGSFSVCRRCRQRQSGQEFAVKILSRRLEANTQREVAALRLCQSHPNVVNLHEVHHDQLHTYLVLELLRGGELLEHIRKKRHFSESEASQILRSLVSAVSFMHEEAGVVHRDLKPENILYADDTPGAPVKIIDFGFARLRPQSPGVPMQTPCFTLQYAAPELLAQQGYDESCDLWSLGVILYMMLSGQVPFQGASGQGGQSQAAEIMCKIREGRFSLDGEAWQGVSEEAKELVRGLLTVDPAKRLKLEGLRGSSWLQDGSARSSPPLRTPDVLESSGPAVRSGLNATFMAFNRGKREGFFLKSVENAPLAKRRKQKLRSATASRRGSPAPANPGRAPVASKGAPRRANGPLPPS
Sequence of CLK2 (P49760 whole entry): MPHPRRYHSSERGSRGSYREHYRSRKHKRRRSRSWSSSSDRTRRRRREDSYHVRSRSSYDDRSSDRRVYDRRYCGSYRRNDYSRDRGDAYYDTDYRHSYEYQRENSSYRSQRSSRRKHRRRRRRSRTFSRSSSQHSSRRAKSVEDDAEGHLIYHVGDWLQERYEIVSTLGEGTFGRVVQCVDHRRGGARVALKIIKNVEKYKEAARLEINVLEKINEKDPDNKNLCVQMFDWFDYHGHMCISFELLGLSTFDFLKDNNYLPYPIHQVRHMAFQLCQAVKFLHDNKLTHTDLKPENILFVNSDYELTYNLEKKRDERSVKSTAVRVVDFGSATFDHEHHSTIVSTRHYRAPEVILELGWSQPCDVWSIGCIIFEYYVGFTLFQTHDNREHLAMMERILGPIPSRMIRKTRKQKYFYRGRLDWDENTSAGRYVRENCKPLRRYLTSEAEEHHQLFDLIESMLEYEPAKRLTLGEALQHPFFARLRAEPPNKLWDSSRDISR
Sequence of NLK (Q9UBE8 whole entry): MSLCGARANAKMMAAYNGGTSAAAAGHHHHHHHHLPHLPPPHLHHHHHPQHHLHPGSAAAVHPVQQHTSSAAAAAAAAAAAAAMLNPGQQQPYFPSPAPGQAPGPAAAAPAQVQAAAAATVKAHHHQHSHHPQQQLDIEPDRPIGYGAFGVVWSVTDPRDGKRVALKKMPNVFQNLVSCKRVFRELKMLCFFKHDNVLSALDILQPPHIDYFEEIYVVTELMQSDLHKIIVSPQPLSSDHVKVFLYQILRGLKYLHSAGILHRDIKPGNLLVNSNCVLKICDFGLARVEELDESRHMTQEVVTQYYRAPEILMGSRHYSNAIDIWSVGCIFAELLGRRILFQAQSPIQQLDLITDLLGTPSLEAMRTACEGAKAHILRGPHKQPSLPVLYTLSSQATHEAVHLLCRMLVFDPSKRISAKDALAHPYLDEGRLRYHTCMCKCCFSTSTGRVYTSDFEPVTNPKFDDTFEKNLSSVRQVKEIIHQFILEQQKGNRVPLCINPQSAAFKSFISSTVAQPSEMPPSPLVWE
T8 sequence (Q15349 whole entry): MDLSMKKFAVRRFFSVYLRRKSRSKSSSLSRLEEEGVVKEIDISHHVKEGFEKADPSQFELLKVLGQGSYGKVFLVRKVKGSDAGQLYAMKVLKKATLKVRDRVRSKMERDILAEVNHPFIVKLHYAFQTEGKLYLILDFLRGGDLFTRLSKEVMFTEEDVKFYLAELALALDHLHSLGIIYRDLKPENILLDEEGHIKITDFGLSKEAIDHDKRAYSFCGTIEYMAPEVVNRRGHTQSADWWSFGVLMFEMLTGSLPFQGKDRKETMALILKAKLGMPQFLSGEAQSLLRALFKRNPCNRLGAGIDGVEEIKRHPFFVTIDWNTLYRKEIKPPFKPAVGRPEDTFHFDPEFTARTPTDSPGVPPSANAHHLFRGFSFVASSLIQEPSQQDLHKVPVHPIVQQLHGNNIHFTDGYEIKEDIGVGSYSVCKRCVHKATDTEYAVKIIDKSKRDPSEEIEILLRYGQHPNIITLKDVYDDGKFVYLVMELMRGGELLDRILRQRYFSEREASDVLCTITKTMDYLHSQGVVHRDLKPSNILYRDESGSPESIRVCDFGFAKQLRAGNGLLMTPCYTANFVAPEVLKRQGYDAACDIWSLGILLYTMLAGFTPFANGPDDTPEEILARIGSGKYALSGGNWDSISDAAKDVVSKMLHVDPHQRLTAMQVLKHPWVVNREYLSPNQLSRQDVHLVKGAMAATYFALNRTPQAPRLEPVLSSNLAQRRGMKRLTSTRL
Sequence of CAMKK1 (Q8N5S9 whole entry): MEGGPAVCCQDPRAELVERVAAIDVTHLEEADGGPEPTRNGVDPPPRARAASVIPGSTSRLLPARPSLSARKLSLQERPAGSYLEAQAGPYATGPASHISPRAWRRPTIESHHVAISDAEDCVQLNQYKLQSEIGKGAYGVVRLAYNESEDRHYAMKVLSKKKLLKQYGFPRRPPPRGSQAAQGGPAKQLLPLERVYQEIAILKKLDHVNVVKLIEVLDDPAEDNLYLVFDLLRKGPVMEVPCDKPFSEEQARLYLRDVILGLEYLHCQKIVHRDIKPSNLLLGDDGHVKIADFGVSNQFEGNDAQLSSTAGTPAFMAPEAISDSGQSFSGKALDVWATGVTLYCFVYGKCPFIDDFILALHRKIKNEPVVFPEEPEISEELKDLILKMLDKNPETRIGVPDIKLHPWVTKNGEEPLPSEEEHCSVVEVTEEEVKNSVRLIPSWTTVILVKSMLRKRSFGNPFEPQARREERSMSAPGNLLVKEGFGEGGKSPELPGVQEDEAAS

SMILES: [O-][S@@+](Cc1cncs1)C(c1ccccc1)c1ccccc1 [S-CE-123, (S)-5-((Benzhydrylsulfinyl)Methyl)Thiazole]
- remaining binding at 2.8 µM (MLK2): 96%
- remaining binding at 2.8 µM (CSNK1A1L): 100%
- remaining binding at 2.8 µM (CAMK2A): 93%
- remaining binding at 2.8 µM (MKNK2): 69%
- remaining binding at 2.8 µM (NLK): 97%
- remaining binding at 2.8 µM (CAMKK1): 95%
- remaining binding at 2.8 µM (MRCKA): 95%
- remaining binding at 2.8 µM (ERK2): 95%
- remaining binding at 2.8 µM (CHEK2): 78%
- remaining binding at 2.8 µM (MLCK): 96%
- remaining binding at 2.8 µM (MAP3K3): 86%
- remaining binding at 2.8 µM (LKB1): 100%
- remaining binding at 2.8 µM (STK16): 97%
- remaining binding at 2.8 µM [1]: 99%
- remaining binding at 2.8 µM (ERK1): 91%
- remaining binding at 2.8 µM (PIP5K1A): 95%
- remaining binding at 2.8 µM (EGFR(T790M)): 98%
- remaining binding at 2.8 µM (EPHA8): 100%
- remaining binding at 2.8 µM [2]: 87%
- remaining binding at 2.8 µM (BIKE): 97%
- remaining binding at 2.8 µM (ERK8): 100%
- remaining binding at 2.8 µM (DYRK1A): 96%
- remaining binding at 2.8 µM (GRK2): 100%
- remaining binding at 2.8 µM (MEK6): 89%
- remaining binding at 2.8 µM (PIK3CA(E542K)): 88%
- remaining binding at 2.8 µM (CLK2): 93%
